Assay results published in paper PMC4128255 (European journal of medicinal chemistry, 2014).
Ends that are not written are not given here. fluorescein = fluorescein label on the lysine ε-amino group

Experiments:
eIF4E (GST-eIF4E) = eIF4E (GST-eIF4E) (Homo sapiens, UniProt P06730); test: Fluorescence polarization; format: binding; conditions: for FP ratio: Table 3, IC50 of [Z]-4EGI-1/IC50 of compound in the same plate; for loss in binding affinity: relative to 4EGI-1, FP
[1] = tested on: cyclin D1, cyclin E, Survivin, β-Actin, α-Tubulin expression in CRL-2813 melanoma cells; test: Western blot of regulatory and housekeeping protein expression in CRL-2813 cells; format: cell-based, Human; conditions: 6 hrs
[2] = target: GST-eIF4E fusion protein (recombinant, E. coli-expressed) (not stated (human or mouse cDNA cloned)) (UniProt P06730); test: fluorescence polarisation
Sequence of GST-eIF4E fusion protein (recombinant, E. coli-expressed) (not stated (human or mouse cDNA cloned)) (P06730 27-217 limits assumed): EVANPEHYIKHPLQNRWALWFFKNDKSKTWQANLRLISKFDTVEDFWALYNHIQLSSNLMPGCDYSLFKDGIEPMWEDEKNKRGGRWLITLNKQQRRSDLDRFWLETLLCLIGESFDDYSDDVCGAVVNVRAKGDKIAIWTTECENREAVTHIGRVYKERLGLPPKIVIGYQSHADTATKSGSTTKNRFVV

Sequence of eIF4E (GST-eIF4E) (P06730 27-217 limits assumed): as above

## 2-(2-(5-(3,4-Dichlorophenyl)thiazol-2-yl)hydrazono)-3-(4-hydroxy-3-nitrophenyl)propanoic acid [[E]-11c]
eIF4E (GST-eIF4E)
  FP ratio: 0.9

## 2-(2-(5-(3,4-Dichlorophenyl)thiazol-2-yl)hydrazono)-3-(4-hydroxy-3-nitrophenyl)propanoic acid [[Z]-11c]
eIF4E (GST-eIF4E)
  FP ratio: 1.1

## 3-(4-Amino-3-nitrophenyl)-2-(2-(5-(3,4-dichlorophenyl)thiazol-2-yl)hydrazono)propanoic acid [[E]-11a]
eIF4E (GST-eIF4E)
  FP ratio: 1.0

## 4-(2-Carboxy-2-(2-(5-(3,4-dichlorophenyl)thiazol-2-yl)hydrazono)ethyl)-3-nitrobenzoic acid [[E]-11b]
eIF4E (GST-eIF4E)
  FP ratio: 0.6

## 4-(2-Carboxy-2-(2-(5-(3,4-dichlorophenyl)thiazol-2-yl)hydrazono)ethyl)-3-nitrobenzoic acid [[Z]-11b]
eIF4E (GST-eIF4E)
  FP ratio: 0.9

## O=C(O)C(Cc1ccc(O)cc1)=NNc1nc(-c2ccc(Cl)c(Cl)c2)cs1 [Compound 10d, 2-(2-(4-(3,4-Dichlorophenyl)thiazol-2-yl)hydrazono)-3-(4-hydroxyphenyl)propanoic acid]
eIF4E (GST-eIF4E)
  loss in binding affinity: 30–40%

## O=C(O)C(Cc1ccc(C(F)(F)F)cc1)=NNc1nc(-c2ccc(Cl)c(Cl)c2)cs1 [Compound 10i, 2-(2-(4-(3,4-Dichlorophenyl)thiazol-2-yl)hydrazono)-3-(4-(trifluoromethyl)phenyl)propanoic acid]
eIF4E (GST-eIF4E)
  loss in binding affinity: 30–40%

## O=C(O)/C(Cc1ccccc1[N+](=O)[O-])=N\Nc1nc(-c2ccc(Cl)c(Cl)c2)cs1 [[Z]-4EGI-1, 2-(2-(4-(3,4-Dichlorophenyl)thiazol-2-yl)hydrazono)-3-(2-nitrophenyl)propanoic acid, reference compound]
[1]
  expression of housekeeping proteins β-Actin and α-Tubulin: not affected
  expression of regulatory proteins cyclin D1, cyclin E, and Survivin: markedly reduced

## O=C(O)/C(Cc1ccccc1[N+](=O)[O-])=N\Nc1nc(-c2ccc(O)cc2)cs1 [[Z]-12b, 2-(2-(4-(4-Hydroxyphenyl)thiazol-2-yl)hydrazono)-3-(2-nitrophenyl)propanoic acid]
[1]
  expression of housekeeping proteins β-Actin and α-Tubulin: no effect
  expression of regulatory proteins cyclin D1, cyclin E, and Survivin: no effect

B1: fluorescein labeled eIF4G-derived peptide …(ε-Flu)-OH (peptide)
peptide: KYTYDELFQLK(fluorescein)-OH
[2]
  Kd: 3000 nM
